“And” between values parts separate entries of the source, which are not always exact repeats. Identical values can stand only once.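 Method: 48-hour compound exposure of cells in 96-well plates, five concentrations, linear interpolation of endpoints. GI50 = concentration required for 50% inhibition of growth. TGI denotes the concentration required for complete inhibition of growth.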
Tests used:
Test in all cases: growth of human tumour cells (NCI), 48 h
MALME-3M melanoma = tested on: MALME-3M melanoma
HL-60(TB) leukemia = tested on: HL-60(TB) leukemia
A498 renal = tested on: A498 renal
HCC-2998 colon = tested on: HCC-2998 colon
UACC-62 melanoma = tested on: UACC-62 melanoma
CAKI-1 renal = tested on: CAKI-1 renal
SNB-75 CNS = tested on: SNB-75 CNS

CC(C)(C)OC(=O)NCCCCCCCCCCCCn1c2c(c3ccccc3c1=O)C(=O)c1ccccc1-2
GI50 (MALME-3M melanoma): > 100 µM
TGI (MALME-3M melanoma): > 100 µM
GI50 (HL-60(TB) leukemia): > 100 µM
TGI (HL-60(TB) leukemia): > 100 µM
GI50 (A498 renal): 24.7 µM
TGI (A498 renal): 68.7 µM
GI50 (HCC-2998 colon): > 100 µM
TGI (HCC-2998 colon): > 100 µM
GI50 (UACC-62 melanoma): 27.4 µM
TGI (UACC-62 melanoma): > 100 µM
GI50 (CAKI-1 renal): 22 µM
TGI (CAKI-1 renal): 57.9 µM
GI50 (SNB-75 CNS): 8.56 µM
TGI (SNB-75 CNS): 26.3 µM

CC(C)C(Br)C(=O)NCC(=O)O (configuration not stated)
TGI (MALME-3M melanoma): > 100 µM
TGI (HL-60(TB) leukemia): > 100 µM
TGI (A498 renal): > 100 µM
TGI (UACC-62 melanoma): > 100 µM
TGI (CAKI-1 renal): > 100 µM
TGI (SNB-75 CNS): > 100 µM

S=C(Nc1ccc(-c2nc3ccccc3s2)cc1)Nc1ccc(-c2nc3ccccc3s2)cc1
GI50 (MALME-3M melanoma): 20 µM
TGI (MALME-3M melanoma): 65.4 µM
GI50 (HL-60(TB) leukemia): 35.7 µM
TGI (HL-60(TB) leukemia): > 100 µM
GI50 (HCC-2998 colon): 17.4 µM
TGI (HCC-2998 colon): 31.2 µM
GI50 (UACC-62 melanoma): 15.7 µM
TGI (UACC-62 melanoma): 32 µM
GI50 (CAKI-1 renal): 13.5 µM
TGI (CAKI-1 renal): 48.1 µM
GI50 (SNB-75 CNS): 10.4 µM
TGI (SNB-75 CNS): 36.4 µM

CN1C2C=CC(=O)C1C(C#N)C2 (configuration not stated)
TGI (MALME-3M melanoma): 51 µM and > 100 µM
TGI (HL-60(TB) leukemia): 43.7 µM and > 100 µM
TGI (A498 renal): > 100 µM
GI50 (HCC-2998 colon): 32.4 µM and 74.9 µM
TGI (HCC-2998 colon): > 100 µM
TGI (UACC-62 melanoma): > 100 µM

COc1ccc(C(=O)Cn2c(C(=O)c3ccc(Cl)cc3)nc(-c3ccccc3)c2-c2ccccc2)cc1
GI50 (MALME-3M melanoma): > 100 µM
TGI (MALME-3M melanoma): > 100 µM
GI50 (HL-60(TB) leukemia): > 100 µM
TGI (HL-60(TB) leukemia): > 100 µM
GI50 (A498 renal): 34.9 µM
TGI (A498 renal): > 100 µM
GI50 (HCC-2998 colon): > 100 µM
TGI (HCC-2998 colon): > 100 µM
GI50 (UACC-62 melanoma): > 100 µM
TGI (UACC-62 melanoma): > 100 µM
GI50 (CAKI-1 renal): 31.2 µM
TGI (CAKI-1 renal): > 100 µM
GI50 (SNB-75 CNS): 85.8 µM
TGI (SNB-75 CNS): > 100 µM

CN(C)CCN=c1nc2c(c(N)n1-c1ccccc1)c(=S)n(-c1ccccc1)c(=S)n2-c1ccccc1
GI50 (MALME-3M melanoma): 2.04 µM
TGI (MALME-3M melanoma): 3.93 µM
GI50 (HL-60(TB) leukemia): 1.52 µM
TGI (HL-60(TB) leukemia): 3.3 µM
GI50 (A498 renal): 1.24 µM
TGI (A498 renal): 4.08 µM
GI50 (HCC-2998 colon): 2.05 µM
TGI (HCC-2998 colon): 5.33 µM
GI50 (UACC-62 melanoma): 1.78 µM
TGI (UACC-62 melanoma): 3.41 µM
GI50 (CAKI-1 renal): 2.16 µM
TGI (CAKI-1 renal): 14.1 µM
GI50 (SNB-75 CNS): 2.3 µM
TGI (SNB-75 CNS): 7.27 µM

COc1ccc(CN2c3ccccc3Sc3ccccc32)cc1O
GI50 (MALME-3M melanoma): 12.1 µM
TGI (MALME-3M melanoma): 28.1 µM
GI50 (HL-60(TB) leukemia): 0.257 µM
TGI (HL-60(TB) leukemia): 0.661 µM
GI50 (A498 renal): 2.71 µM
TGI (A498 renal): 19 µM
GI50 (HCC-2998 colon): 0.422 µM
TGI (HCC-2998 colon): 10.7 µM
GI50 (UACC-62 melanoma): 0.682 µM
TGI (UACC-62 melanoma): 19.4 µM
GI50 (CAKI-1 renal): 0.472 µM
TGI (CAKI-1 renal): 17.7 µM
GI50 (SNB-75 CNS): 0.18 µM
TGI (SNB-75 CNS): 13.3 µM

CCOc1ccc2cc(-c3nn(CC4CCN(C)CC4)c4ncnc(N)c34)ccc2c1
GI50 (HL-60(TB) leukemia): 15.7 µM
TGI (HL-60(TB) leukemia): 34.6 µM
GI50 (A498 renal): 11.8 µM
TGI (A498 renal): 25.2 µM
GI50 (HCC-2998 colon): 17.1 µM
TGI (HCC-2998 colon): 32 µM
GI50 (UACC-62 melanoma): 16.3 µM
TGI (UACC-62 melanoma): 32.5 µM
GI50 (CAKI-1 renal): 11.1 µM
TGI (CAKI-1 renal): 25.8 µM
GI50 (SNB-75 CNS): 1.56 µM
TGI (SNB-75 CNS): 15.9 µM

Cc1nc(C(=O)OCc2ccccc2)cc(OCc2ccccc2)c1C
GI50 (MALME-3M melanoma): 24.4 µM
TGI (MALME-3M melanoma): 52.1 µM
GI50 (HL-60(TB) leukemia): 1.53 µM
TGI (HL-60(TB) leukemia): 25 µM
GI50 (A498 renal): 27.9 µM
TGI (A498 renal): > 85.6 µM
GI50 (HCC-2998 colon): 20.5 µM
TGI (HCC-2998 colon): 54.1 µM
GI50 (UACC-62 melanoma): 11 µM
TGI (UACC-62 melanoma): 24.8 µM
GI50 (CAKI-1 renal): 32.6 µM
TGI (CAKI-1 renal): > 100 µM
GI50 (SNB-75 CNS): 17.5 µM
TGI (SNB-75 CNS): 39.4 µM

CCCCC[C@H]1C/C=C2/C(=O)C=C[C@@H]2C/C=C\CCCC(=O)O1
GI50 (MALME-3M melanoma): 0.5 µM
TGI (MALME-3M melanoma): 5.02 µM
GI50 (HL-60(TB) leukemia): 0.12 µM
TGI (HL-60(TB) leukemia): 0.343 µM
GI50 (A498 renal): 0.193 µM
TGI (A498 renal): 0.878 µM
GI50 (HCC-2998 colon): 0.096 µM
TGI (HCC-2998 colon): 0.179 µM
GI50 (SNB-75 CNS): 0.227 µM
TGI (SNB-75 CNS): 1.98 µM

CCN(CC)c1ccc(/C=N/N=C(N)N)cc1
GI50 (MALME-3M melanoma): 4.45 µM
TGI (MALME-3M melanoma): 18.7 µM
GI50 (HL-60(TB) leukemia): 2.84 µM
TGI (HL-60(TB) leukemia): 7.95 µM
GI50 (A498 renal): 2.25 µM
TGI (A498 renal): 21.9 µM
GI50 (HCC-2998 colon): 4.68 µM
TGI (HCC-2998 colon): 17.3 µM
GI50 (UACC-62 melanoma): 4.23 µM
TGI (UACC-62 melanoma): 18.1 µM
GI50 (CAKI-1 renal): 6.73 µM
TGI (CAKI-1 renal): > 100 µM
GI50 (SNB-75 CNS): 3.74 µM
TGI (SNB-75 CNS): > 100 µM

Fc1ccc(-c2ncn(C3CCNCC3)c2-c2ccnc(Oc3ccc(Cl)cc3)n2)cc1
GI50 (MALME-3M melanoma): 4.64 µM
TGI (MALME-3M melanoma): 10.1 µM
GI50 (HL-60(TB) leukemia): 4.96 µM
TGI (HL-60(TB) leukemia): 11.6 µM
GI50 (A498 renal): 3.67 µM
TGI (A498 renal): 21.4 µM
GI50 (HCC-2998 colon): 4.12 µM
TGI (HCC-2998 colon): 7.93 µM
GI50 (UACC-62 melanoma): 4.18 µM
TGI (UACC-62 melanoma): 8.04 µM
GI50 (CAKI-1 renal): 5.49 µM
TGI (CAKI-1 renal): > 16.7 µM
GI50 (SNB-75 CNS): 3.4 µM
TGI (SNB-75 CNS): 14.3 µM

N#C/C(=C/C=C/c1cccc(Cl)c1)S(=O)c1ccccc1 (configuration not stated)
GI50 (MALME-3M melanoma): 1.05 µM
TGI (MALME-3M melanoma): 2.69 µM
GI50 (HL-60(TB) leukemia): 0.285 µM
TGI (HL-60(TB) leukemia): 2.16 µM
GI50 (A498 renal): 1.8 µM
TGI (A498 renal): 3.53 µM
GI50 (HCC-2998 colon): 0.366 µM
TGI (HCC-2998 colon): 1.31 µM
GI50 (UACC-62 melanoma): 1.14 µM
TGI (UACC-62 melanoma): 2.69 µM
GI50 (CAKI-1 renal): 0.283 µM
TGI (CAKI-1 renal): 1.08 µM
GI50 (SNB-75 CNS): 1.2 µM
TGI (SNB-75 CNS): 3.82 µM

C=C1C(=O)O[C@@H]2C[C@@H](C)[C@@H]3C=CC(=O)[C@@]3(C)[C@@H](OC(=O)CCCC(=O)O[C@H]3[C@@H]4C(=C)C(=O)O[C@@H]4C[C@@H](C)[C@@H]4C=CC(=O)[C@]43C)[C@H]12
TGI (MALME-3M melanoma): 0.0373 µM
TGI (A498 renal): 0.546 µM
TGI (HCC-2998 colon): 1.27 µM
TGI (UACC-62 melanoma): 0.103 µM
TGI (CAKI-1 renal): 0.187 µM
TGI (SNB-75 CNS): 0.482 µM

COc1ccc(C2=NNC(c3sc(Cl)nc3Cl)C2)cc1 (configuration not stated)
GI50 (MALME-3M melanoma): 11.2 µM
TGI (MALME-3M melanoma): 29 µM
GI50 (HL-60(TB) leukemia): 10.4 µM
TGI (HL-60(TB) leukemia): 64.1 µM
GI50 (A498 renal): 33.1 µM
TGI (A498 renal): > 100 µM
GI50 (HCC-2998 colon): 16.9 µM
TGI (HCC-2998 colon): 33.9 µM
GI50 (UACC-62 melanoma): 6.94 µM
TGI (UACC-62 melanoma): 21.1 µM
GI50 (CAKI-1 renal): 11.8 µM
TGI (CAKI-1 renal): 39.4 µM
GI50 (SNB-75 CNS): 36.6 µM
TGI (SNB-75 CNS): > 100 µM

CCNc1ccc2c(c1)C(=O)N(OS(C)(=O)=O)C2=O
TGI (MALME-3M melanoma): > 100 µM
TGI (A498 renal): > 100 µM
TGI (HCC-2998 colon): > 100 µM
TGI (UACC-62 melanoma): > 100 µM
TGI (CAKI-1 renal): > 100 µM

CCCCS(=O)(=O)c1cc(Nc2ccc(O)c3c2C(=O)c2ccccc2C3=O)ccc1C
GI50 (HL-60(TB) leukemia): > 100 µM
TGI (HL-60(TB) leukemia): > 100 µM
GI50 (A498 renal): > 100 µM
TGI (A498 renal): > 100 µM
GI50 (HCC-2998 colon): > 100 µM
TGI (HCC-2998 colon): > 100 µM
GI50 (UACC-62 melanoma): 2.77 µM
TGI (UACC-62 melanoma): > 100 µM
GI50 (CAKI-1 renal): > 100 µM
TGI (CAKI-1 renal): > 100 µM
GI50 (SNB-75 CNS): 21.9 µM
TGI (SNB-75 CNS): > 100 µM

COc1c(OC2OC(C)C(O)C(O)C2O)c(OC)c2oc(-c3ccc(O)cc3)cc(=O)c2c1O (configuration not stated)
GI50 (MALME-3M melanoma): 34.2 µM
TGI (MALME-3M melanoma): > 100 µM
GI50 (A498 renal): 35.4 µM
TGI (A498 renal): > 100 µM
GI50 (HCC-2998 colon): 37.2 µM
TGI (HCC-2998 colon): > 100 µM
GI50 (UACC-62 melanoma): 16.6 µM
TGI (UACC-62 melanoma): 38.4 µM
GI50 (CAKI-1 renal): 27.6 µM
TGI (CAKI-1 renal): > 100 µM
GI50 (SNB-75 CNS): 20.6 µM
TGI (SNB-75 CNS): 87.1 µM
